For one assay, the system named is INS1E cells. The experiment in a line: In vitro stimulation of pancreatic beta cells: gene expression and insulin secretion. It counts as cell-based, rat. The procedure:
INS1E cells (rat pancreatic beta-cell line) were maintained in complete RPMI1640 supplemented with 5% Fetal Bovine Serum, 2 mM L-glutamine, 5 μM beta-mercaptoethanol, 1 mM sodium pyruvate, 10 mM HEPES, 100 units/ml of penicillin and 100 μg/ml streptomycin. INSIE cells were seeded in 48-well plates at a density of 1×10^5 cells per well and left resting for one day. Subsequently, medium was replaced with 0.5 ml/well of INS1E complete RPMI1640 medium containing vehicle or the metabolites: 6-BT (1/10/25 μM), LysoPC(20:0) (5/10/50 μM), or MA-GPC (10/50/100 μM). After 24 hours, cells and supernatant were harvested for further analysis (gene expression and insulin secretion, respectively) and stored at −80° C. Cells were lysed in Tripure isolation reagent (Roche) before storage.
For glucose-stimulated insulin secretion (GSIS) assay, cells were preincubated in a Krebs-Ringer bicarbonate buffer (KRB) [115 mM NaCl, 5 mM KCl, 2.56 mM CaCl2), 1 mM MgCl2, 10 mM NaHCO3, 15 mM HEPES, and 0.3% of BSA (pH 7.4)] for 30 min at 37° C., following by stimulation with 1 mM glucose in KRB for 1 hour (0.5 ml/well) and stimulation with 22 mM glucose in KRB for another hour (0.5 ml/well) at 37° C. Supernatant was recovered after treatment with 1 mM glucose (Sigma-Aldrich) and 22 mM glucose and cells stored at −80° C. GSIS was performed on beta cells after treatment for 24-hour treatment with 10 μM 6-BT.
Specific ELISAs (R&D Systems) were utilized to measure the concentration of TNFα, IFNβ, and IFNγ in cell supernatant of murine monocytes, macrophages ad T cells, respectively, according to the manufacturer's instructions. The concentration of insulin after 24-hour treatment with metabolites or after GSIS were determined using Rat insulin ELISA (Mercodia) according to the manufacturer's instructions. GSIS was calculated by subtracting the concentration of insulin at 1 mM glucose to the insulin rate at 22 mM glucose.
Total RNA was extracted from Tripure isolation reagent cell lysates. RNA was converted to cDNA by with iScript kit (BioRad). Quantitative polymerase chain reaction (qPCR) was performed using SYBR Green-SensiMix (Bioline) on a CFX384 Touch Real-Time PCR Detection System (BioRad). The delta delta Ct method was used to calculate gene expression as fold-change compared to control (unstimulated conditions).
Given the positive association between plasma 6-BT levels and C-peptide concentrations (found in the clinical study), it was then questioned whether 6-BT can exert a direct effect on beta cells. Indeed, it is seen here that 6-BT induces, in IS1E beta cells, the gene expression of the transcription factors PDX1 and MAFA, which are important for beta cell maturation and functionality.

The subject of another assay is NF-kB pathway. The experiment in a line: Phosphorylated p65 subunit after PMA/ionomycin activation, Jurkat cells. It counts as cell-based. The following applies: human Jurkat cells; PMA 50 μg/ml and ionomycin 1 μg/ml; 5-10 minutes after activation (FIG. 18). The procedure:
Seeking for the molecular mechanism(s) underlying 6-BT actions, 6-BT impact on the activation of the NF-kB pathway, a central pathway in all inflammatory diseases (beyond autoimmunity) was checked first. […] Upon T cell activation with PMA ([…]) and ionomycin (1 μg/ml), 6-BT could inhibit, at very early time-points (5-10 minutes after activation), the NF-kB signaling. This effect was found in both murine and human (Jurkat cells) CD4 T cells.

The subject of assay [1] is human (Jurkat) CD4 T cells. The experiment in a line: Seahorse XF mitochondrial metabolism (OCR), Jurkat CD4 T cells. It counts as cell-based. The note with it: 100 uM; human (Jurkat) CD4 T cells (FIG. 22). The procedure:
Finally, it was uncovered that 6-BT also impacts the intracellular metabolism.
OCR=oxygen consumption rate, used as a proxy of cellular utilization of mitochondrial oxidative phosphorylation. OCR was measured using a Seahorse XF Analyzer Uchimura T., The Innate Immune Sensor NLRC3 Acts as a Rheostat that Fine-Tunes T Cell Responses in Infection and Autoimmunity. Immunity 2019; Chou, AIM2 in regulatory T cells restrains autoimmune diseases, Nature 2021.

Another assay has as its target T1, AhR (Homo sapiens, UniProt P35869).
T1 sequence (P35869 11-848): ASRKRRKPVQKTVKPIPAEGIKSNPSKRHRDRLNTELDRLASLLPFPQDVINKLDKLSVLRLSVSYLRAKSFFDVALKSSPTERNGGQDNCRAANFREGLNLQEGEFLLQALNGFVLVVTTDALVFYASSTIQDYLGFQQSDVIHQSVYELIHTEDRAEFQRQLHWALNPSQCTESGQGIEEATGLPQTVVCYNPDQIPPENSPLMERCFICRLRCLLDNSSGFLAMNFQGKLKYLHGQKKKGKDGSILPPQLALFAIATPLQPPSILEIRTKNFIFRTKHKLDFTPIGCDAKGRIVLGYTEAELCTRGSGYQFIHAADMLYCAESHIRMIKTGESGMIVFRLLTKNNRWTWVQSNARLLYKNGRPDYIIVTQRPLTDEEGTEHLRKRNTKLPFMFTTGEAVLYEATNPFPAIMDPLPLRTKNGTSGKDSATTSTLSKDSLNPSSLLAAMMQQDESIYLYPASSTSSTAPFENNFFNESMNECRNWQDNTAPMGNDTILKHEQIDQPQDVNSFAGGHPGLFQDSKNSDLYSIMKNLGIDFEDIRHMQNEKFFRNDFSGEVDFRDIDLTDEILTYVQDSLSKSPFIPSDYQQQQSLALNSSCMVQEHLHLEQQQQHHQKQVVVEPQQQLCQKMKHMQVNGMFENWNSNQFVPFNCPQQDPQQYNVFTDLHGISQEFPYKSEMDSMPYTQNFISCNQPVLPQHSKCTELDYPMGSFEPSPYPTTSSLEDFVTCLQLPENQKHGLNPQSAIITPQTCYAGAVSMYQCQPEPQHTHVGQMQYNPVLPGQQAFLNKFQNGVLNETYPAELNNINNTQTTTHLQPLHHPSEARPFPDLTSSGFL
In words: AhR activation.

Structures are written as SMILES.

Turning to `N[C@@H](Cc1c[nH]c2cc(Br)ccc12)C(=O)O` [6-BT, 6-bromotryptophan], the pancreatic beta-cell function result with INS1E cells (INS1e beta-cells treated for 24 hours, beta cell differentiation markers (FIGS. 12 and 13)) is listed as “enhances pancreatic beta-cell function”. For the same compound, in the assay on INS1E cells (beta cells (FIG. 17)), the “gene expression of the transcription factor MAFA” value is “induces” and the “gene expression of the transcription factor PDX1” value is reported as “induces”. Also, in the assay with INS1E cells (beta cells, 24-hour treatment (FIG. 17)), the “insulin secretion at steady-state” value is on record as “promotes insulin secretion”. In the assay with INS1E cells (difference between insulin release at 1 mM and 22 mM glucose, 24-hour treatment with 10 μM), the glucose-stimulated insulin secretion entry is recorded as “promotes insulin secretion”. The “NF-kB signaling (phosphorylated p65 subunit)” value in the assay with NF-kB pathway was “could inhibit”. Further, the “mitochondrial metabolism (OCR)” value in assay [1] is reported as “promotes the mitochondrial metabolism”. Also, on AhR, the “activation of AhR” value is reported as “does not act through activation of AhR”.

The record behind these values is patent US12648928B2, “Intervention strategy for prevention or treatment of diabetes mellitus, autoimmune disease, inflammatory disease or cardiovascular disease” (ACADEMISCH MEDISCH CENTRUM, priority 2020, dated 2026).
